{
  "source": "PubChem BioAssay AID743443",
  "about": "(The Scripps Research Institute Molecular Screening Center, 2014)",
  "note": "The source made the active and inactive calls. The rule behind the calls is not given here.",
  "data": [
    {"biological_target": "Sphingosine 1-phosphate receptor 5 (Homo sapiens) (UniProt Q9H228)", "sequence (Q9H228 whole entry, looked up)": "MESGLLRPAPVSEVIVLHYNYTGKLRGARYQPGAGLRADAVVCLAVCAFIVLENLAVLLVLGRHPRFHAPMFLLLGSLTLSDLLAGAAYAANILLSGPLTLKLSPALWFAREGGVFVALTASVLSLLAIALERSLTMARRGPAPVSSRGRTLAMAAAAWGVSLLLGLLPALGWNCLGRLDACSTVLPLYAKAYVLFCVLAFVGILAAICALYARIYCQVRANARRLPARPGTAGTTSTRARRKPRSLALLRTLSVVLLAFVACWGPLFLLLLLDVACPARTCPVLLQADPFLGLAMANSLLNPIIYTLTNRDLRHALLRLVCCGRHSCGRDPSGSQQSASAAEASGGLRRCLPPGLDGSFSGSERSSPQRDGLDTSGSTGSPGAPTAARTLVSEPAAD", "assay": "antagonism at human S1PR5 – cell-based, FRET, dose response, selectivity assay for S1PR3 antagonist project, late-stage follow-up (AID 743443)", "conditions": "S1P5 FRET cell-based antagonist assay", "values": [
      {"smiles": "COc1ccc(C(=O)NC(c2ccccc2)c2nc(-c3ccccc3)no2)cc1", "note": "(stereo not given)", "IC50": "> 28.2 µM (inactive)"},
      {"smiles": "O=C(NC(c1ccccc1)c1nc(-c2ccccc2)no1)c1cccc(Br)c1", "note": "(stereo not given)", "IC50": "> 28.2 µM (inactive)"},
      {"smiles": "O=C(NC(c1ccc(Cl)cc1)c1nc(-c2cccc(Cl)c2)no1)c1cccc(Cl)c1", "note": "(stereo not given)", "IC50": "> 28.2 µM (inactive)"},
      {"smiles": "O=C(c1cccc(Cl)c1)N(CCO)C(c1ccc(Cl)c(Cl)c1)c1nc(-c2ccccc2)no1", "note": "(stereo not given)", "IC50": "9.9 µM"},
      {"smiles": "O=C(NC(c1ccc(Cl)cc1)c1nc(-c2ccccc2)no1)c1ccc(Cl)c(Cl)c1", "note": "(stereo not given)", "IC50": "> 28.2 µM (inactive)"},
      {"smiles": "O=C(NC(c1ccc(Cl)c(Cl)c1)c1nc(-c2ccccc2)no1)c1ccccc1", "note": "(stereo not given)", "IC50": "> 28.2 µM (inactive)"},
      {"smiles": "O=C(NC(c1ccccc1)c1nc(-c2ccccc2)no1)c1ccc(Cl)cc1", "note": "(stereo not given)", "IC50": "> 28.2 µM (inactive)"},
      {"smiles": "O=C(NC(c1cccc(Cl)c1)c1nc(-c2ccccc2)no1)c1cccc(Cl)c1", "note": "(stereo not given)", "IC50": "5.1 µM"},
      {"smiles": "CCc1ccc(C(NC(=O)c2cccc(Cl)c2)c2nc(-c3ccccc3)no2)cc1", "note": "(stereo not given)", "IC50": "> 28.2 µM (inactive)"},
      {"smiles": "O=C(NC(Cc1ccccc1)c1nc(-c2ccccc2)no1)c1cccc(Cl)c1", "note": "(stereo not given)", "IC50": "inactive"},
      {"smiles": "O=C(NC(c1cccc(Cl)c1)c1nc(-c2ccccc2)no1)c1cc(Cl)cc(Cl)c1", "note": "(stereo not given)", "IC50": "> 28.2 µM (inactive)"},
      {"smiles": "O=C(NC(c1nc(-c2ccccc2)no1)C1CCOCC1)c1ccc(Cl)c(Cl)c1", "note": "(stereo not given)", "IC50": "> 28.2 µM (inactive)"},
      {"smiles": "O=C(NC(c1ccccc1)c1nc(-c2ccccc2)no1)c1cccc(Cl)c1", "note": "(stereo not given)", "IC50": "> 28.2 µM (inactive)"},
      {"smiles": "O=C(NC(c1ccc(Cl)c(Cl)c1)c1nc(-c2ccccc2)no1)c1cccc(Cl)c1", "note": "(stereo not given)", "IC50": "inactive"},
      {"smiles": "O=C(NC(c1ccc(Cl)cc1)c1nc(-c2ccccc2)no1)c1ccc(Cl)c(Br)c1", "note": "(stereo not given)", "IC50": "> 28.2 µM (inactive)"},
      {"smiles": "O=C(NC(c1ccc(Cl)cc1)c1nc(-c2ccccc2)no1)c1cccc(Cl)c1", "note": "(stereo not given)", "IC50": "> 28.2 µM (inactive)"},
      {"smiles": "N#Cc1ccc(C(=O)NC(c2ccc(Cl)c(Cl)c2)c2nc(-c3ccccc3)no2)cc1", "note": "(stereo not given)", "IC50": "inactive"},
      {"smiles": "O=C(NC(c1ccc(Cl)c(Cl)c1)c1nc(-c2ccccc2)no1)c1ccc(Cl)cc1", "note": "(stereo not given)", "IC50": "inactive"},
      {"smiles": "O=C(NC(c1ccc(Cl)c(Cl)c1)c1nc(-c2ccccc2)no1)c1ccc(Cl)c(Cl)c1", "note": "(stereo not given)", "IC50": "> 28.2 µM (inactive)"},
      {"smiles": "Cc1ccc(C(=O)NC(c2ccccc2)c2nc(-c3ccccc3)no2)cc1", "note": "(stereo not given)", "IC50": "> 28.2 µM (inactive)"},
      {"smiles": "O=C(NC(c1ccccc1)c1nc(-c2ccccc2)no1)c1cccc(Cl)n1", "note": "(stereo not given)", "IC50": "inactive"},
      {"smiles": "O=C(NC(c1ccc(Cl)cc1)c1nc(-c2ccccn2)no1)c1cccc(Cl)c1", "note": "(stereo not given)", "IC50": "> 28.2 µM (inactive)"},
      {"smiles": "O=C(NC(c1cccc(Cl)c1)c1nc(-c2ccccc2)no1)c1ccc(Cl)c(Cl)c1", "note": "(stereo not given)", "IC50": "> 28.2 µM (inactive)"},
      {"smiles": "O=C(NC(c1ccc(Br)cc1)c1nc(-c2ccccc2)no1)c1ccc(Cl)c(Cl)c1", "note": "(stereo not given)", "IC50": "> 28.2 µM (inactive)"},
      {"smiles": "O=C(NC(c1ccc(Cl)cc1)c1nc(-c2ccccc2)no1)c1cccc(Br)c1", "note": "(stereo not given)", "IC50": "inactive"}
    ]}
  ]
}
